Test results taken from article PMC8467647, “Identification of Small Molecule Inhibitors against Staphylococcus aureus Dihydroorotase via HTS” (International Journal of Molecular Sciences, 2021).

T1: SaDHOase (Staphylococcus aureus, UniProt Q5HGN1)
T1 construct: The full-length SaDHOase was expressed and purified following the cloning of the SaDHO gene; His-SUMO with HRV 3C protease site (N, cleaved yes); made in house; host or cells: E. coli BL21 (DE3)
T1 sequence (Q5HGN1 1-424): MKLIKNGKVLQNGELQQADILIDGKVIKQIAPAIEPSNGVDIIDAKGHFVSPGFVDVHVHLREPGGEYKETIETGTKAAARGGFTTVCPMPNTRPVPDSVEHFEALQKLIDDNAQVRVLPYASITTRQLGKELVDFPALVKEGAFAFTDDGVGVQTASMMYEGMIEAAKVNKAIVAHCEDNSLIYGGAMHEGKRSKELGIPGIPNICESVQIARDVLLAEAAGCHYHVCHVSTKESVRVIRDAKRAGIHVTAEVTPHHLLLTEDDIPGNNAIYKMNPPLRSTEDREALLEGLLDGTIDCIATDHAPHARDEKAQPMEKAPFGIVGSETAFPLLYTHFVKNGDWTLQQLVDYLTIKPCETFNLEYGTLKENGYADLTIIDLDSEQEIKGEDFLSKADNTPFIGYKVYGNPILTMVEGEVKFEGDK

B1: SaDHOase (Staphylococcus aureus subsp. aureus COL) (protein)
chain: T1 sequence (Q5HGN1 1-424)
notes: The full-length SaDHOase was expressed and purified following the cloning of the SaDHO gene; His-SUMO with HRV 3C protease site (N, cleaved yes); made in house; host or cells: E. coli BL21 (DE3)

Substrate: NC(=O)N[C@@H](CC(=O)O)C(=O)O
Experiment: SaDHOase enzyme activity (substrate KM)
Format: biochemical, Staphylococcus aureus
Settings: other: substrate of SaDHOase
Experimental: The full-length SaDHOase was expressed and purified following the cloning of the SaDHO gene according to previously published methods. Purified SaDHOase enzyme activity was measured and confirmed by two methods, one by observing the production of Ca-asp (reverse reaction) at a UV-Vis absorption of 540 nm (TSC-DAMO method) and the other with continuously monitoring reduction of DHO at 230 nm (Figure 1A). Enzyme rates were calculated using the measured slopes, path length of 0.44 cm and the extinction coefficient (ε) of DHO at 230 nm, 1.17 mM^−1 cm^−1 [14].

Molecule	Km [µM]
B1	110

Molecular target: T1, SaDHOase
Experiment: SPR direct binding, steady-state affinity KD determination
Settings: compound alone, immobilized SaDHOase, 25 °C, steady-state affinity fit
Experimental: (§1) The KD was determined using the response units during the equilibration phase of each concentration of the compound. […] In order to determine the mechanism of action, competition SPR studies were done in the presence of high concentration of the substrate Ca-asp (KM = 110 µM) (Figure 3A). Dose-response curve of the tightest binder (5) is shown as an example (Figure 3C).
Purified histidine-tag cleaved DHOase was buffer exchanged to PBS (10 mM phosphate, pH 7.4, 2.7 mM KCl and 137 mM NaCl) for SPR. SPR was performed at 25 °C using a Biacore T200 instrument and a CM5 sensor chip (GE Healthcare). The flow channels were activated by a 1-ethyl-3-(3-dimethylaminopropyl) carbodiimide hydrochloride (EDC)/N-hydroxy succinimide (NHS) mixture. Flow channel 1 was left unmodified as a control. DHOase was diluted in 10 mM sodium acetate (pH 4.0) and immobilized to flow channels 2 and 3 at levels of 8596 RU and 8342 RU, respectively. Fragment solutions at 65 μM and 200 μM were applied to all three channels at a 30 μL/min flow rate. For KD determination, fragment solutions at increasing concentrations (0–400 μM at 2-fold dilution) were applied to all three channels at a 30 μL/min flow rate. The SPR binding buffer was PBS-P supplemented with 2% DMSO and 0.5 mM TCEP. All data was referenced with the blank channel RU values, and the sensorgrams were analyzed using Biacore T200 evaluation software v2.0.3. The response units at each concentration was measured during the equilibration phase for the steady-state affinity fittings.
(§2) For KD determination of analogs, DHOase was immobilized to flow channels 2, 3 and 4 at levels of 10,160 RU, 12,072 RU and 11,358 RU, respectively. 1 mM Ca-asp was additionally added to the binding buffer for a competition SPR. The sensorgrams were analyzed using BiaEvaluation software 2.0.3. All data was referenced to a blank channel RU signal prior to the fitting. The RU difference at each concentration was measured during the binding equilibration phase, and BiaEvaluation software v2.0.3 was used to fit the data to determine KD values. The RU values and corresponding concentrations were plotted using the single hyperbolic Function (1), where y is the response; ymax is the maximum response, and x is the compound concentration. (1) y=ymax·x/(KD+x)

Molecule	Kd [µM]	KD
Cc1ccccc1CN1CCCN(C)CC1 [Compound 3]	156	–
CCc1ccc(CN2CCC(O)CC2)cc1 [Compound 9]	125 ± 20	–
Cc1ccc(CN2CCCC(O)C2)c(C)c1 (stereo not shown) [Compound 13]	77 ± 15	–
Cc1ccc(C)c(CN2CCC(O)CC2)c1 [Compound 8]	11 ± 5	–
Cn1c(SCC#N)nc2ccccc2c1=O [Compound 2]	98	–
Cc1cccc(CN2CCC(O)CC2)c1 [Compound 10]	> 400	eliminates all bonding
CCNC(=O)N1CCC(N)CC1 [Compound 4]	274	–
Cc1ccc(CN2CCC(O)CC2)cc1 [Compound 5]	48	–
NC1C(=O)Nc2ccc(Br)cc21 (stereo not shown) [Compound 1]	205	–
Cc1ccccc1CN1CCC(O)CC1 [Compound 7]	41 ± 18	–
OC1CCN(Cc2cccc(C(F)(F)F)c2)CC1 [Compound 11]	> 400	eliminates all bonding
OC1CCN(Cc2ccc(C(F)(F)F)cc2)CC1 [Compound 12]	48 ± 24	–
Cc1cccc(CN2CCCC(CO)C2)c1 (stereo not shown) [Compound 14]	38 ± 5	–
OC1CCN(Cc2cccc(Cl)c2Cl)CC1 [Compound 6]	90 ± 4	–

Molecular target: T1, SaDHOase
Experiment: Competition SPR in the presence of 1 mM substrate Ca-asp
Format: binding
Settings: KD with 1 mM Ca-asp vs compound alone
Experimental: as §1, §2

Molecule	Weakening of binding affinity in the presence of 1 mM Ca-asp
NC1C(=O)Nc2ccc(Br)cc21 (stereo not shown) [Compound 1]	~ 2.8 fold

Same assay, conditions: competition SPR, 1 mM Ca-asp

Molecule	Effect of substrate Ca-asp on binding (mode of binding)
Cn1c(SCC#N)nc2ccccc2c1=O [Compound 2]	not affected by Ca-asp presence
